This is an account of results in ChEMBL document CHEMBL1123605, “Renin inhibitors. Dipeptide analogues of angiotensinogen incorporating transition-state, nonpeptidic replacements at the scissile bond” (J Med Chem, 1987).

Assay [1] has as its target T1, Renin (Homo sapiens, UniProt P00797).
T1 sequence (P00797 whole entry): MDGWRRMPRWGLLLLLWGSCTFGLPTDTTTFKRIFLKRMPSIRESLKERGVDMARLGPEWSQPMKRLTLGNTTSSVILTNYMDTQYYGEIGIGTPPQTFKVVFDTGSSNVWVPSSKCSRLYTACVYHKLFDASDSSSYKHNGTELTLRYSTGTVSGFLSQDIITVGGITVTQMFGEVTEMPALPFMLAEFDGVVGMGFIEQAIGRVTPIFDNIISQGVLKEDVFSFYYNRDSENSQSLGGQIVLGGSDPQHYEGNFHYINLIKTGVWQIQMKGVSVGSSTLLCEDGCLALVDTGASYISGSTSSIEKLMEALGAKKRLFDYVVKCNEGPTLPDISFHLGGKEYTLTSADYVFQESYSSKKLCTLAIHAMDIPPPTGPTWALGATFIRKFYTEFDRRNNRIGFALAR
The assay can be described thus: Inhibition against purified human renin.

Assay [2] concerns the target T2, Cathepsin D (Bos taurus, UniProt P80209).
T2 sequence (P80209 whole entry): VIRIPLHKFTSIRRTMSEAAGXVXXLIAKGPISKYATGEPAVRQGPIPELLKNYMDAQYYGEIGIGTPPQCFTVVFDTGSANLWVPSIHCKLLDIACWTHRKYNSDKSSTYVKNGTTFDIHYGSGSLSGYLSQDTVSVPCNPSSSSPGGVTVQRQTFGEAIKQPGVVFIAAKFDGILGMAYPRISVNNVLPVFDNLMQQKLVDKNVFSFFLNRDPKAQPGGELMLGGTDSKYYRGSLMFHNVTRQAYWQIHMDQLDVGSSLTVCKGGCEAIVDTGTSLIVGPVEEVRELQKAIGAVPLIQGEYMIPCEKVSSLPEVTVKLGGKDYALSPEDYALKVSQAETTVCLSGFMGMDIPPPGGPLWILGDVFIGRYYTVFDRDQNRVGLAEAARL
The assay can be described thus: Inhibition against cathepsin D.

The target of assay [3] is T3, Renin (Rattus norvegicus) (UniProt P08424).
T3 sequence (whole entry): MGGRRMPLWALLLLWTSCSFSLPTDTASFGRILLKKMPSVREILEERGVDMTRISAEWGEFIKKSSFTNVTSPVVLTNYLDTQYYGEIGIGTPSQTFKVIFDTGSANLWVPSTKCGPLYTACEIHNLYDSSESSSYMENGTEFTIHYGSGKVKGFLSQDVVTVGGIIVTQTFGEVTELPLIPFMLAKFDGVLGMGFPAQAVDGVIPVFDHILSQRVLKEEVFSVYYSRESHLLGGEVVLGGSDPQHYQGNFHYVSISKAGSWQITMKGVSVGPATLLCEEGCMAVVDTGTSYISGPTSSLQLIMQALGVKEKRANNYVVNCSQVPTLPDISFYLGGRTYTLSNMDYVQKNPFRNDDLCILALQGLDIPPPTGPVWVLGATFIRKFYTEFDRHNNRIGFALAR
Description: Percentage inhibition against rat plasma renin at 1.0x10E-5M. The assay is classed as cell-free.

The target in assay [4] is T1, Renin. The assay can be described thus: Inhibition against purified human renal renin.
Assay [5] deals with T4, Renin (Rattus norvegicus, UniProt P08424).
T4 sequence (P08424 whole entry): T3 sequence (whole entry)
The assay can be described thus: Inhibition against rat plasma renin. The assay is classed as cell-free.

Assay [6] addresses T1, Renin. Description: Inhibition against human plasma renin. It is filed as cell-free.
The target in assay [7] is Pepsin A (Sus scrofa) (UniProt P00791). The assay can be described thus: Percentage inhibition against pepsin; NI=no inhibition at 1.0x10E-5M.
Pepsin A (Sus scrofa), sequence (P00791 60-385 limits assumed): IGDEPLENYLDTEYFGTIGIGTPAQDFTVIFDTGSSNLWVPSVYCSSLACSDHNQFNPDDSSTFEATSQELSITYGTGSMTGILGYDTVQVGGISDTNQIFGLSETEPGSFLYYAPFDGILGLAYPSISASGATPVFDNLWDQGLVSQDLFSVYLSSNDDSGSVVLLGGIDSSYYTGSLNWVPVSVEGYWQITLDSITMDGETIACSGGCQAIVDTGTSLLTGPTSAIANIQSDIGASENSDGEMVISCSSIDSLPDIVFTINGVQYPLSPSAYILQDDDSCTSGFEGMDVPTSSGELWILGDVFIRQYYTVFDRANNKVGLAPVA
The target of assay [8] is T5, Cathepsin D (Bos taurus) (UniProt P80209).
T5 sequence (whole entry): T2 sequence (P80209 whole entry)
Description: Percentage inhibition against cathepsin D at 1.0x10E-5M.

The target of assay [9] is T4, Renin. Description: Inhibition against rat plasma renin. It is filed as cell-free.
Assay [10] has as its target T3, Renin (Rattus norvegicus). Description: Percentage inhibition against rat plasma renin. It is filed as cell-free. The conditions noted are these: concentration not given here.

Where only a bound is given, the exact number is not on record here.

With `CC(C)C[C@H](NC(=O)[C@H](C)NC(=O)[C@H](Cc1ccccc1)NC(=O)OC(C)(C)C)[C@@H](O)CCS(=O)(=O)CCc1ccccc1`, the IC50 in assay [1] was found to be 1800 nM.
For `CC(C)C[C@H](NC(=O)[C@H](Cc1ccccc1)NC(=O)OC(C)(C)C)C(=O)N[C@@H](CC1CCCCC1)[C@@H](O)CCS(=O)(=O)C(C)C`, the IC50 in assay [2] is 8000 nM; in assay [4] it was 14 nM; in [5] it was more than 10000 nM; in assay [6] it was 77 nM. Also, the values for the inhibition in assay [3] and in assay [7] were 18% and “No inhibition”, respectively.
As to `CC(C)S(=O)(=O)CC[C@H](O)[C@H](CC1CCCCC1)NC(=O)[C@H](C)NC(=O)[C@H](Cc1ccccc1)NC(=O)OC(C)(C)C`, the IC50 in [2] was more than 10000 nM; in assay [4], 76 nM; in assay [5] it was more than 10000 nM; in [6], 850 nM. The inhibition in [3] was 12%; in assay [8], 22%; in assay [7], “No inhibition”.
Molecule `CC(C)CSCC[C@H](O)[C@H](CC(C)C)NC(=O)[C@H](C)NC(=O)[C@H](Cc1ccccc1)NC(=O)OC(C)(C)C` returned an IC50 in [1] of 4100 nM.
As for `CC(C)C[C@H](NC(=O)[C@H](C)NC(=O)[C@H](Cc1ccccc1)NC(=O)OC(C)(C)C)[C@@H](O)CCS(=O)(=O)C(C)C`, the IC50 in assay [1] was 1600 nM.
Same read-out and setting: for `CC(C)CCS(=O)(=O)CC[C@H](O)[C@H](CC(C)C)NC(=O)[C@H](C)NC(=O)[C@H](Cc1ccccc1)NC(=O)OC(C)(C)C` the value was 2400 nM.
As to `CCOC(=O)N[C@@H](Cc1ccccc1)C(=O)N[C@@H](Cc1cnc[nH]1)C(=O)N[C@@H](CC1CCCCC1)[C@@H](O)CCS(=O)(=O)C(C)C`, the IC50 in [2] is more than 10000 nM; in assay [4], 10 nM; in [5], more than 10000 nM; in [6], 23 nM.
Consider `CC(C)C[C@H](NC(=O)[C@H](C)NC(=O)[C@H](Cc1ccccc1)NC(=O)OC(C)(C)C)[C@@H](O)CCSC(C)C`, for which, in assay [1], the midpoint of inhibition, the IC50, lay at 4800 nM.
Still for that read-out and setting: under `CC(C)CCC(O)CC[C@H](O)[C@H](CC(C)C)NC(=O)[C@H](C)NC(=O)[C@H](Cc1ccccc1)NC(=O)OC(C)(C)C` (some centres not stated) stands 3800 nM.
As to `CCS(=O)(=O)CC[C@H](O)[C@H](CC1CCCCC1)NC(=O)[C@H](C)NC(=O)[C@H](Cc1ccccc1)NC(=O)OC(C)(C)C`, the IC50 in assay [2] is more than 10000 nM; in assay [4], 140 nM; in assay [5] it was more than 10000 nM; in assay [6], 1000 nM. The inhibition in assay [3] is 2%; in [8] it was 18%; in assay [7] it was “No inhibition”.
`COc1ccc(C[C@H](NC(=O)OC(C)(C)C)C(=O)N[C@@H](Cc2c[nH]cn2)C(=O)N[C@@H](CC2CCCCC2)[C@@H](O)CCS(=O)(=O)C(C)C)cc1`: the IC50 in assay [2] is more than 10000 nM; in [4], 9.1 nM; in [5], more than 10000 nM; in assay [6], 41 nM. In addition, the inhibition in assay [3] was 0%; in [8], 0%; in assay [7], “No inhibition”.
In the case of `CC(C)C[C@H](NC(=O)[C@H](C)NC(=O)[C@H](Cc1ccccc1)NC(=O)OC(C)(C)C)[C@@H](O)CCS(=O)(=O)CC(C)C`, in assay [1], the IC50 stood at 3200 nM.
In turn, `CC(C)C[C@H](NC(=O)[C@H](C)NC(=O)[C@H](Cc1ccccc1)NC(=O)OC(C)(C)C)[C@@H](O)CCSCCc1ccccc1` displayed an IC50 in assay [1] of 4200 nM.
`CC[C@H](C)[C@H](NC(=O)[C@@H](NC(O)[C@H](CC(C)C)NC(=O)[C@H](Cc1c[nH]cn1)NC(=O)[C@H](Cc1ccccc1)NC(=O)[C@@H]1CCCN1C(=O)[C@H](Cc1c[nH]cn1)NC(=O)OC(C)(C)C)C(C)C)C(=O)N[C@@H](Cc1c[nH]cn1)C(=O)O` (some centres not stated) had an IC50 in assay [6] of 0.7 nM.
Regarding `CC(C)S(=O)(=O)CC[C@H](O)[C@H](CC1CCCCC1)NC(=O)[C@H](Cc1c[nH]cn1)NC(=O)[C@H](Cc1ccccc1)NC(=O)OC(C)(C)C`, the IC50 in [9] stood at 10000 nM; in assay [1], 7.6 nM; in [2] it was 10000 nM; in assay [6], 27 nM. The inhibition in assay [10] was 11%; in assay [8], 0%.
For `CC(C)S(=O)(=O)CC[C@H](O)[C@H](CC1CCCCC1)NC(=O)[C@H](Cc1ccccc1)NC(=O)[C@H](Cc1ccccc1)NC(=O)OC(C)(C)C`, the IC50 in [2] was more than 10000 nM; in assay [4], 20 nM; in assay [5], more than 10000 nM; in [6], 340 nM. Further, the inhibition is 26% in assay [3], 0% in assay [8] and “No inhibition” in assay [7].
Regarding `CCOC(=O)N[C@@H](Cc1ccccc1)C(=O)N[C@@H](Cc1c[nH]cn1)C(=O)N[C@@H](CC1CCCCC1)[C@@H](O)CCS(=O)(=O)C(C)C`, the inhibition in assay [3] is 12%; in assay [8] it was 0%; in [7] it was “No inhibition”.
Consider `CCS(=O)(=O)CC[C@H](O)[C@H](CC1CCCCC1)NC(=O)[C@H](Cc1cnc[nH]1)NC(=O)[C@H](Cc1ccccc1)NC(=O)OC(C)(C)C`, for which the IC50 in assay [9] was more than 10000 nM; in assay [1], 7.6 nM; in assay [2], more than 10000 nM; in [6] it was 28 nM.
As to `CCS(=O)(=O)CC[C@H](O)[C@H](CC1CCCCC1)NC(=O)[C@H](Cc1c[nH]cn1)NC(=O)[C@H](Cc1ccccc1)NC(=O)OC(C)(C)C`, the inhibition in [10] and in assay [8] was 0% throughout.
The molecule `CC(C)CCSCC[C@H](O)[C@H](CC(C)C)NC(=O)[C@H](C)NC(=O)[C@H](Cc1ccccc1)NC(=O)OC(C)(C)C` gave an IC50 in assay [1] of 5500 nM.
As to `CC(C)CCC(=O)CC[C@H](O)[C@H](CC(C)C)NC(=O)[C@H](C)NC(=O)[C@H](Cc1ccccc1)NC(=O)OC(C)(C)C`, in assay [1], the IC50 worked out at 2400 nM.
As for `CC(C)S(=O)(=O)CC[C@H](O)[C@H](CC1CCCCC1)NC(=O)[C@H](Cc1c[nH]cn1)NC(=O)[C@H](Cc1ccccc1)NC(=O)CC(C)(C)C`, the IC50 was more than 10000 nM in assay [2], 6 nM in [4], more than 10000 nM in [5] and 19 nM in [6]. Further, the inhibition is 30% in assay [3], 0% in assay [8] and “No inhibition” in [7].
Regarding `CC(C)CC[S+]([O-])CC[C@H](O)[C@H](CC(C)C)NC(=O)[C@H](C)NC(=O)[C@H](Cc1ccccc1)NC(=O)OC(C)(C)C` (some centres not stated), inhibition in [1] was half-maximal at 5200 nM (IC50).

What is called IC50 is the point on the concentration scale where inhibition reaches its midpoint. The inhibition is how much of the control response was suppressed.
